Legend:
Assay type in all cases: physicochemical
[1] = Photostability testing under illumination of 4500 Lx of ingredient and 1% premix (HPLC); settings: 4500 Lx
Source text: (§1) Preparation of a sample of 1% premix of an ingredient: 1 g of an ingredient was respectively weighed out and evenly mixed with 99 g of corncob meal in a mixer to give a sample of 1% premix of an ingredient for testing.
Photostability testing: The samples of an ingredient and 1% premix thereof were respectively spread in petri dishes to form thin layers of <5 mm, and kept under an illumination of 4500 Lx. Three replications for a sample were sampled in parallel on day 5 and day 10 for HPLC analysis.
(§2) 25.0 mg of an ingredient was accurately weighed out and dissolved in an appropriate amount of methanol by ultrasonication. The solution was then transferred to a volumetric flask and diluted to 25 mL with methanol to give a stock solution. The samples from the stock solution were diluted with methanol respectively to a concentration of 100 ppm, 500 ppm, and 1000 ppm of work solution, and then the working solutions were filtered by 0.22 μm organic membranes. Between the concentration of a sample and the response value of HPLC peak area thereof, the linearity was adjusted and detected to give a standard curve.
(§3) 2.3: Preparation of Sample Solution 25.0 mg of an ingredient and 2.0000 g of a sample of 1% premix thereof were respectively accurately weighed out, and dissolved in 25 mL of methanol by ultrasonication for 10 minutes. The resulting solutions were filtered by organic membranes and then analyzed by HPLC. 2.4: Testing Conditions for HPLC • Column: Symmetry Cis column (Waters; 250 mm*4.6 mm, 5 μm). • Mobile phase: 0.02% phosphoric acid:methanol=5:95 (v:v). • Wavelength: 235 nm. • Temperature of the Column: 25° C. • Injection volume: 10 μL. • Flow rate: 1 mL/min. 3: Results

[2] = Long-term stability in feeds at room temperature (25° C.±2° C., RH 60%±10%; HPLC)
Source text: Feeds: ZUSF's premixed feed (A mixture of crushed Feed A and crushed Feed B at a weight ratio of 2:1, wherein Feed A was a 5.33% multi-premixed feed for piglets from ZUSF's Hao-Ru-Zhen-Jing, and B was a 2.67% multi-premixed feed for piglets from ZUSF's Hao-Ru-Zhen-Jing); creep feed for piglets from CP FEED; INSIGHTER's feed for broiler; 4% premixed feed from GUANGDONG CO-POWER.
Preparation of a sample of 1% premix of Ingredient: 1 g of an ingredient was respectively weighed out and evenly mixed with 99 g of corncob meal in a mixer to give a sample of 1% premix of an ingredient.
Preparation of a sample of 500 ppm feed of an ingredient: The sample of 1% premix of an ingredient was diluted step by step using the ZUSF's remixed feed to 5000 ppm and 500 ppm to give the sample of 500 ppm feed of an ingredient for later testing.
Preparation of a sample of 100 ppm feed of an ingredient: sample of 1% premix of an ingredient was diluted step by step using the creep feed for piglets from CP FEED to 1000 ppm and then 100 ppm to give the sample of 100 ppm feed of an ingredient for later testing.
Preparation of a sample of 100 ppm feed of an ingredient: The sample of 1% premix of an ingredient was diluted step by step using the INSIGHTER's feed for broiler to 1000 ppm and 100 ppm to give the sample of 100 ppm feed of an ingredient for later testing.
Preparation of a sample of 2000 ppm feed of an ingredient: The sample of 1% premix of an ingredient was diluted step by step using the 4% premixed feed from GUANGDONG CO-POWER to 5000 ppm and 2000 ppm to give the sample of 2000 ppm feed of an ingredient for later testing.
Method: Three replications of each feed sample were tested at the condition of 25° C.±2° C. and RH 60%±10%, wherein the replications of each feed sample were sampled in parallel for HPLC analysis on day 5, day 10, day 15, day 30, day 60, and day 90.
25.0 mg of an ingredient was accurately weighed out and dissolved in an appropriate amount of methanol or n-hexane by ultrasonication. The solution was then transferred to a volumetric flask and diluted to 50 mL to give a 500 ppm (by wt.) stock solution. The samples from the stock solution were diluted with methanol or n-hexane respectively to a concentration of 10 ppm, 25 ppm, 50 ppm, 100 ppm, and 250 ppm of work solution, and then the working solutions were filtered by 0.22 μm organic membranes. Between the concentration of a sample and the response value of HPLC peak area thereof, the linearity was adjusted and detected to give a standard curve.
5.0000 g of the samples sampled at different time intervals were respectively accurately weighed out, and dissolved in 25 mL of methanol or n-hexane by ultrasonication for 10 minutes. The resulting solutions were filtered by organic membranes and then analyzed by HPLC.
• Equipment: Waters e2695 with PDA detector. • Mobile phase: 0.02% phosphoric acid:methanol=5:95 (v:v). • Column: Symmetry Cis column (Waters; 250 mm×4.6 mm, 5 μm). • Wavelength: 235 nm. • Temperature of the Column: 25° C. • Injection volume: 10 μL. • Flow rate: 1 mL/min. Normal Phase Chromatography: • Equipment: Shimadzu LC-14C/SPD-15C. • Column: SuperSil NH2 column ([…]; 250 mm×4.6 mm). • Mobile phase: n-hexane:isopropanol=60:40 (v:v). • Wavelength: 235 nm. • Temperature of the Column: 25° C. • Injection volume: 20 μL. • Flow rate: 1 mL/min. 3: Results

[3] = Thermal stability testing at 60° C. of ingredient and 1% premix (HPLC)
Procedure: as §1
Thermal stability testing at 60° C.: The samples of an ingredient and 1% premix thereof were respectively spread in petri dishes to form thin layers of <5 mm, and kept at 60° C. Two replications for a sample were taken in parallel on day 5 and day 10 for HPLC analysis.
as §2, §3

[4] = 1% Premix of an ingredient (corncob meal), Day 5
[5] = 1% Premix of an ingredient (corncob meal), Day 10

CCC(=O)OC1=C(CCC(C)C)C(=O)C(CCC(C)C)(CCC(C)C)C(O)=C1C(=O)C(C)C [hexahydro-colupulone mono-propionate]
Residual amount of active ingredient [1, 4]: 98.87%
Residual amount of active ingredient [1, 5]: 98.10%
Residual amount of active ingredient ([1]; Ingredient, Day 5): 98.90%
Residual amount of active ingredient ([1]; Ingredient, Day 10): 98.70%
Residual amount of active ingredient ([2]; 100 ppm in INSIGHTER's broiler feed, Day 5): 99.45%
Residual amount of active ingredient ([2]; 100 ppm in INSIGHTER's broiler feed, Day 15): 99.37%
Residual amount of active ingredient ([2]; 100 ppm in INSIGHTER's broiler feed, Day 30): 99.19%
Residual amount of active ingredient ([2]; 100 ppm in INSIGHTER's broiler feed, Day 60): 99.72%
Residual amount of active ingredient ([2]; 100 ppm in creep feed for piglets from CP FEED, Day 5): 100.54%
Residual amount of active ingredient ([2]; 100 ppm in creep feed for piglets from CP FEED, Day 15): 100.97%
Residual amount of active ingredient ([2]; 100 ppm in creep feed for piglets from CP FEED, Day 30): 97.62%
Residual amount of active ingredient ([2]; 100 ppm in creep feed for piglets from CP FEED, Day 60): 98.08%
Residual amount of active ingredient ([2]; 100 ppm in creep feed for piglets from CP FEED, Day 90): 96.99%
Residual amount of active ingredient ([2]; 500 ppm in ZUSF's premixed feed, Day 5): 98.36%
Residual amount of active ingredient ([2]; 500 ppm in ZUSF's premixed feed, Day 15): 96.77%
Residual amount of active ingredient ([2]; 500 ppm in ZUSF's premixed feed, Day 30): 94.17%
Residual amount of active ingredient ([2]; 500 ppm in ZUSF's premixed feed, Day 60): 95.88%
Residual amount of active ingredient ([2]; 500 ppm in ZUSF's premixed feed, Day 90): 95.73%
Residual amount of active ingredient ([2]; 2000 ppm in 4% premixed feed from GUANGDONG CO-POWER, Day 5): 97.48%
Residual amount of active ingredient ([2]; 2000 ppm in 4% premixed feed from GUANGDONG CO-POWER, Day 15): 96.12%
Residual amount of active ingredient ([2]; 2000 ppm in 4% premixed feed from GUANGDONG CO-POWER, Day 30): 96.28%
Residual amount of active ingredient ([2]; 2000 ppm in 4% premixed feed from GUANGDONG CO-POWER, Day 60): 95.87%
Residual amount of active ingredient ([2]; 2000 ppm in 4% premixed feed from GUANGDONG CO-POWER, Day 90): 95.90%
Residual amount of active ingredient [3, 4]: 98.27%
Residual amount of active ingredient [3, 5]: 97.91%
Residual amount of active ingredient ([3]; Ingredient, Day 5): 99.40%
Residual amount of active ingredient ([3]; Ingredient, Day 10): 99.26%
